# Source: patent US11851440B2, “Modulators of eukaryotic initiation factor 2B, compositions and methods” (Denali Therapeutics Inc., priority 2017, dated 2023)
# Where two headings read alike, the source gives them in different places.
# Tests used:
# [1] = target: T1, P-gp (P-glycoprotein, MDR1) (Homo sapiens, UniProt P08183); test: MDCKII-MDR1 permeability, bidirectional assay; format: in vitro ADME; conditions: dog, MDCK-MDR1, MDCKII-MDR1 cells, HBSS+12.5 mM HEPES pH 7.4
# T1 construct: host or cells: MDCKII-MDR1 cells (pre-plated, Corning HTS Transwell-96)
# Method: The blood brain barrier (BBB) separates circulating blood from the extracellular fluid of the central nervous system (CNS). […] A bidirectional assay (Apical to Basolateral (A→B) and Basolateral to Apical (B→A)), in the absence and in the presence of GF120918 (a P-gp inhibitor) was conducted using pre-plated MDCKII-MDR1 cells (Corning HTS Transwell-96) obtained from SOLVO Biotechnology. The assay was run at 3 μM for 90 min (minutes) in triplicate using a HBSS+12.5 mM HEPES pH 7.4 transport buffer. Following incubation of samples from donor and receiver, wells were removed and measured by LC-MS/MS. Samples were extracted by protein precipitation with acetonitrile containing an appropriate internal standard (IS) having a known mass and molecular weight. The precipitate was centrifuged for 10 min at 3000 rpm (revolutions per minute). The supernatants were then collected, diluted if necessary, and injected on to the LC-MS/MS system. Specific parent/daughter ion pairs for the test article and IS were used to selectively measure the test articles. Papp (apparent permeability expressed in nm/sec [nanometer/second]) values were calculated according to the following equation: […]
# Where dQ/dt is the permeability rate, C0 is the initial concentration in the donor solution (expressed as IS ratio), A and B are the surface areas of the filter (the surface area of the cell monolayer).
# Monolayer efflux ratios (ER) were derived using the following equation: […]
# [2] = test system: ISR pathway (ATF4 translation); test: ATF4 Nano Luciferase reporter integrated stress response (ISR) assay in H4 ATF4-NLuc cells; conditions: Homo sapiens, compound 30 minutes, then 50 um sodium arsenite for 6 hours, luminescence readout
# T1 sequence (P08183 whole entry): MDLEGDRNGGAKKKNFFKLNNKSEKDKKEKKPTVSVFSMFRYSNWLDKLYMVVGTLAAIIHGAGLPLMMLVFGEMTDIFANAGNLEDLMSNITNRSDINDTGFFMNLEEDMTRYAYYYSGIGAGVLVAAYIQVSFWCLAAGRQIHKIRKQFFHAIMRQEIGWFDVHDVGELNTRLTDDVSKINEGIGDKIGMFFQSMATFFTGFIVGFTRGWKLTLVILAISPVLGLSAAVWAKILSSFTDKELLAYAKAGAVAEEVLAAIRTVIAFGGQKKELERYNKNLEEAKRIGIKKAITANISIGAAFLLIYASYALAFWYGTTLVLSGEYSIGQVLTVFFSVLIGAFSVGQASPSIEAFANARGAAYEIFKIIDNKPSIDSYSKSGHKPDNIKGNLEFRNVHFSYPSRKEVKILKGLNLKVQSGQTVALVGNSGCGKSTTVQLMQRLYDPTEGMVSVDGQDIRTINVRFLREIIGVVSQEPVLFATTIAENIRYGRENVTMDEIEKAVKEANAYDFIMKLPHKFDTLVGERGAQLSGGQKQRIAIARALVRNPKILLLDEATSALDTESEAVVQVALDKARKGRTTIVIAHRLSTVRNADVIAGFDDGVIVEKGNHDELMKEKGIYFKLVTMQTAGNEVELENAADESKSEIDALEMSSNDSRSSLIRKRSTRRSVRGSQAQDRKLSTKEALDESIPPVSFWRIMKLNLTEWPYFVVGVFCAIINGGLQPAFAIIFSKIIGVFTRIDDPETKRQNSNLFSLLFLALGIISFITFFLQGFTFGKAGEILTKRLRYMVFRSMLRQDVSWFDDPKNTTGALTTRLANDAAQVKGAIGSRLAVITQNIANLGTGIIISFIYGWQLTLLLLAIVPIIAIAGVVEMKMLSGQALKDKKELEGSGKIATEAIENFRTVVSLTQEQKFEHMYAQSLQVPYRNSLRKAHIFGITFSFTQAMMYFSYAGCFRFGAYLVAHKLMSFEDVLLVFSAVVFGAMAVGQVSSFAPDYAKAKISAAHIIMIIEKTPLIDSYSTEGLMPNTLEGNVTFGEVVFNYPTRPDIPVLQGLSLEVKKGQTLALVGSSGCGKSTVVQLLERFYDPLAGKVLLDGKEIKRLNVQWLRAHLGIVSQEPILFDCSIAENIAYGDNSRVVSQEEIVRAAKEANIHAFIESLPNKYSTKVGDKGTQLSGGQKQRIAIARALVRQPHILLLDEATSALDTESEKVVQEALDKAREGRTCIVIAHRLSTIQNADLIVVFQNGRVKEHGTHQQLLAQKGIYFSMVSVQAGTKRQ
smiles,measurement,setting,value
"O=C(CO[C@H]1C[C@@H](OC(F)(F)F)C1)NC12CC(n3cnc(-c4ccc(Cl)c(F)c4F)c3)(C1)C2 [Example 270, N-(3-(4-(4-chloro-2,3-difluorophenyl)-1H-imidazol-1-yl)bicyclo[1.1.1]pentan-1-yl)-2-(3-cis-(trifluoromethoxy)cyclobutoxy)acetamide]","efflux ratio at 90 min, 3 μM",[1],≤ 2.5
same,IC50,[2]; H4 ATF4-NLuc (clone 17) cells,1.1 nM
same,IC50,"[2]; read-out: Activity (IC50), H4 ATF4-NLuc (clone 17) cells",< 1000 nM
